This passage reports IC50 results from patent US20240217968A1, “PHARMACEUTICAL COMPOUND” (DUKE STREET BIO LIMITED, priority 2021, published 2024).

What is called IC50 is the midpoint of a concentration-inhibition curve.

The assay addresses T1, recombinant human Flag-tagged PARP7 (amino acids 456-657) (Homo sapiens, UniProt Q7Z3E1).
T1 construct: recombinant human Flag-tagged PARP7 (amino acids 456-657)
T1 sequence (Q7Z3E1 456-657): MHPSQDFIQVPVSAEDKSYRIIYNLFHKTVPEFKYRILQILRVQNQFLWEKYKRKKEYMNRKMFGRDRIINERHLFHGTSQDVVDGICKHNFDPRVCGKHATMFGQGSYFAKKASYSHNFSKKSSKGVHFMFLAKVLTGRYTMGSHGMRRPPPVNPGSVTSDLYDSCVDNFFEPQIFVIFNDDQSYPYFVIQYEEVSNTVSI
The experiment in a line: PARP7 biochemical DELFIA assay (auto-MARylation). Particulars: DELFIA readout, IC50 class. A digest of the protocol: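 Readout is DELFIA time-resolved Eu fluorescence (Ex337 nm, Em620 nm) of biotin-ADP-ribose on immobilised Flag-tagged PARP7 456-657. Enzyme (12.5-37.5 nM as added) sat 30 min with compound before biotin-NAD+ (15 μM solution, pH 7.5 HEPES buffer) started 2-3 h room-temperature self-modification, stopped with excess NAD+.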

Turning to `O=C(CCOCCc1cc(F)cc2c(=O)[nH]ncc12)N1CCN(c2ncc(C(F)(F)F)cn2)CC1` [Compound 82], the IC50 was at most 0.1 µM.
Under `CC1CN(c2ccc(C#N)cn2)CCN1C(=O)CCOCCc1cccc2c(=O)[nH]ncc12` (centres unmarked) [Compound 85] stands at most 0.1 µM; under `CC1CN(c2ncc(C(F)(F)F)cn2)CCN1C(=O)CCOCCc1cccc2c(=O)[nH]ncc12` (centres unmarked) [Compound 87], at most 0.1 µM; under `CC1CN(c2ncc(C(F)(F)F)cn2)CCN1C(=O)CCOCCc1cccc2c(=O)[nH]ncc12` (centres unmarked) [Compound 88], at most 0.1 µM.
The figure for `CC1CN(C(=O)CCOCCc2cccc3c(=O)[nH]ncc23)CCN1c1ncc(C(F)(F)F)cn1` (centres unmarked) [Compound 89] is at most 0.1 µM.
Under `CC1CN(C(=O)CCOCCc2cccc3c(=O)[nH]ncc23)CCN1c1ncc(C(F)(F)F)cn1` (centres unmarked) [Compound 90] stands at most 0.1 µM; under `CC1CN(C(=O)CCOCCc2cccc3c(=O)[nH]ncc23)CCN1c1ccc(C#N)cn1` (centres unmarked) [Compound 91], at most 0.1 µM.
As for `N#Cc1ccc(N2CCN(C(=O)CCOCCn3ncc4c(=O)[nH]ncc43)CC2)nc1` [Compound 92], the concentration for half-maximal inhibition (IC50) was 0.1 to 1 µM.
The figure for `N#Cc1ccc(N2CCN(C(=O)c3cccc(OCc4cccc5c(=O)[nH]ncc45)c3)CC2)nc1` [Compound 93] is 1 to 10 µM; for `O=C(c1cccc(OCc2cccc3c(=O)[nH]ncc23)c1)N1CCN(c2ncc(C(F)(F)F)cn2)CC1` [Compound 94] it is 1 to 10 µM.
Under `O=C(CCOCCc1cccc2c(=O)[nH]ncc12)N1CCN(c2ccc(F)cn2)CC1` [Compound 95] stands 0.1 to 1 µM; under `O=C(CCOCCc1cccc2c(=O)[nH]ncc12)N1CCN(c2ccc(Cl)cn2)CC1` [Compound 96], at most 0.1 µM.
The figure for `O=C(CCOCCc1cccc2c(=O)[nH]ncc12)N1CCN(c2ccc(C(F)F)cn2)CC1` [Compound 97] is at most 0.1 µM.
For `O=C(CCOCCc1cccc2c(=O)[nH]ncc12)N1CCN(c2ccc(C(F)(F)F)cn2)CC1` [Compound 98, 5-(2-(3-oxo-3-(4-(5-(trifluoromethyl)pyridin-2-yl)piperazin-1-yl)propoxy)ethyl)phthalazin-1(2H)-one], the half-inhibitory concentration (IC50) was at most 0.1 µM.
Under `O=C(CCOCCc1cccc2c(=O)[nH]ncc12)N1CCN(c2ncc(F)cn2)CC1` [Compound 99] stands at most 0.1 µM.
Under `O=C(CCOCCc1cccc2c(=O)[nH]ncc12)N1CCN(c2ncc(Cl)cn2)CC1` [Compound 100] stands at most 0.1 µM; under `O=C(CCOCCc1cccc2c(=O)[nH]ncc12)N1CCN(c2ncc(C(F)F)cn2)CC1` [Compound 101], at most 0.1 µM; under `N#Cc1cnc(N2CCN(C(=O)CCOCCc3cccc4c(=O)[nH]ncc34)CC2)nc1` [Compound 102], at most 0.1 µM.
Under `O=C(CCOCCc1cccc2c(=O)[nH]ncc12)N1CCN(c2ccccn2)CC1` [Compound 103] stands 0.1 to 1 µM.
In the case of `O=C(CCOCCc1cccc2c(=O)[nH]ncc12)N1CCN(c2ncccn2)CC1` [Compound 104], the concentration for half-maximal inhibition (IC50) fell in the range of 0.1 to 1 µM.
Under `O=C(CCOCCc1cccc2c(=O)[nH]ncc12)N1CCN(c2cnc(C(F)(F)F)cn2)CC1` [Compound 105] stands at most 0.1 µM; under `O=C(CCOCCc1cccc2c(=O)[nH]ncc12)N1CCN(c2ncc(C(F)(F)F)s2)CC1` [Compound 106], at most 0.1 µM.
As for `O=C(COCCc1cccc2c(=O)[nH]ncc12)NC1CCN(c2ncc(C(F)(F)F)cn2)CC1` [Compound 107], the IC50 was at most 0.1 µM.
The figure for `CN(C(=O)COCCc1cccc2c(=O)[nH]ncc12)C1CCN(c2ncc(C(F)(F)F)cn2)CC1` [Compound 108] is at most 0.1 µM.
Under `CN(C(=O)COCCc1cccc2c(=O)[nH]ncc12)C1CN(c2ncc(C(F)(F)F)cn2)C1` [Compound 109] stands 1 to 10 µM.
Turning to `O=C(NCCOCc1cccc2c(=O)[nH]ncc12)C1CCN(c2ncc(C(F)(F)F)cn2)CC1` [Compound 110], the IC50 lay within 0.1 to 1 µM.
The figure for `N#Cc1ccc(N2CCN(C(=O)CCOCCc3cc(C#N)cc4c(=O)[nH]ncc34)CC2)nc1` [Compound 111] is 0.1 to 1 µM; for `N#Cc1cc(CCOCCC(=O)N2CCN(c3ncc(C(F)(F)F)cn3)CC2)c2cn[nH]c(=O)c2c1` [Compound 112] it is 0.1 to 1 µM.
The figure for `CS(=O)(=O)c1ccc(N2CCN(C(=O)CCOCCc3cccc4c(=O)[nH]ncc34)CC2)nc1` [Compound 113] is 0.1 to 1 µM; for `O=C(CCOCCc1cccc2c(=O)[nH]ncc12)N1CCN(c2ccc(OC(F)(F)F)cn2)CC1` [Compound 114] it is at most 0.1 µM.
Under `O=C(CCOCCc1cccc2c(=O)[nH]ncc12)N1CCC(c2ncc(Cl)cn2)CC1` [Compound 115] stands 0.1 to 1 µM.
`N#Cc1ccc(OC2CCN(C(=O)CCOCCc3cccc4c(=O)[nH]ncc34)C2)nc1` (centres unmarked) [Compound 116]: the half-maximal inhibitory concentration (IC50) was in the range of 1 to 10 µM.
With `O=C1NCCc2c(NCCOCC(=O)N3CCN(c4ncc(C(F)(F)F)cn4)CC3)cccc21` [Compound 117], the 50% inhibitory concentration (IC50) was in the range of 1 to 10 µM.
Take `O=C(CCOCCc1cccc2c(=O)[nH]ncc12)N1CCC(c2ccc(Cl)cn2)CC1` [Compound 118]: the IC50 lay within 0.1 to 1 µM.
Under `CC(COCCC(=O)N1CCN(c2ncc(C(F)(F)F)cn2)CC1)c1cc(F)cc2c(=O)[nH]ncc12` (centres unmarked) [Compound 119] stands 1 to 10 µM; under `CC(COCCC(=O)N1CCN(c2ncc(C(F)(F)F)cn2)CC1)c1cc(F)cc2c(=O)[nH]ncc12` (centres unmarked) [Compound 120], at most 0.1 µM; under `O=C1NC(=O)c2c(CCOCCC(=O)N3CCN(c4ncc(C(F)(F)F)cn4)CC3)cccc21` [Compound 121], 0.1 to 1 µM.
With `CC(OCCCC(=O)N1CCN(c2ncc(C(F)(F)F)cn2)CC1)c1cccc2c(=O)[nH]ncc12` (centres unmarked) [Compound 123], the IC50 was at most 0.1 µM.
The figure for `O=C(CCCOCc1cccc2c(=O)[nH]ncc12)N1CCN(c2ncc(C(F)(F)F)cn2)CC1` [Compound 124] is at most 0.1 µM; for `O=C(CCOCCn1c(CO)cc2c(=O)[nH]ncc21)N1CCN(c2ncc(C(F)(F)F)cn2)CC1` [Compound 125] it is at most 0.1 µM.
The figure for `CC1CCc2c(cn[nH]c2=O)N1CCOCCC(=O)N1CCN(c2ncc(C(F)(F)F)cn2)CC1` (centres unmarked) [Compound 126] is 0.1 to 1 µM; for `Cc1nn(CCOCCC(=O)N2CCN(c3ncc(C(F)(F)F)cn3)CC2)c2cn[nH]c(=O)c12` [Compound 127] it is at most 0.1 µM.
For the compound `O=C1NCCn2c(CCOCCC(=O)N3CCN(c4ncc(C(F)(F)F)cn4)CC3)ccc21` [Compound 128], the 50% inhibitory concentration (IC50) fell in the range of 0.1 to 1 µM.
The figure for `CC(OCCCC(=O)N1CCN(c2ncc(C(F)(F)F)cn2)CC1)c1cc(F)cc2c(=O)[nH]ncc12` (centres unmarked) [Compound 129] is at most 0.1 µM; for `O=C(CCOCCn1cc(C(F)(F)F)c2c(=O)[nH]ncc21)N1CCN(c2ncc(C(F)(F)F)cn2)CC1` [Compound 131, 1-(2-(3-oxo-3-(4-(5-(trifluoromethyl)pyrimidin-2-yl)piperazin-1-yl)propoxy)ethyl)-3-(trifluoromethyl)-1,5-dihydro-4H-pyrrolo[2,3-d]pyridazin-4-one] it is at most 0.1 µM.
Regarding `O=C(CCOCCn1ncc2c(=O)[nH]ncc21)N1CCN(c2ccc(C(F)(F)F)cn2)CC1` [Compound 132], the IC50 is at most 0.1 µM.
Consider `O=C(CCOCCn1ncc2c(=O)[nH]ncc21)N1CCN(c2ccc(Cl)cn2)CC1` [Compound 133], for which the IC50 was at most 0.1 µM.
The figure for `Cc1cc(CCOCCC(=O)N2CCN(c3ncc(C(F)(F)F)cn3)CC2)n2c1C(=O)NCC2` [Compound 134] is at most 0.1 µM; for `COCc1cc2c(=O)[nH]ncc2n1CCOCCC(=O)N1CCN(c2ncc(C(F)(F)F)cn2)CC1` [Compound 135] it is 0.1 to 1 µM; for `NCc1cc2c(=O)[nH]ncc2n1CCOCCC(=O)N1CCN(c2ncc(C(F)(F)F)cn2)CC1` [Compound 136] it is 0.1 to 1 µM.
Under `CC1CN(C(=O)CCOCCn2ncc3c(=O)[nH]ncc32)CCN1c1ncc(C(F)(F)F)cn1` (centres unmarked) [Compound 137] stands at most 0.1 µM.
`CC1CN(C(=O)CCOCCn2ncc3c(=O)[nH]ncc32)CCN1c1ncc(C(F)(F)F)cn1` (centres unmarked) [Compound 138]: the IC50 is at most 0.1 µM.
With `O=C(CCOCCc1cccc2c(=O)[nH]ncc12)N1CCC(c2nc3ccccc3o2)CC1` [Compound 139], the half-maximal inhibitory concentration (IC50) is at most 0.1 µM.
The figure for `O=C(CCOCCc1cccc2c(=O)[nH]ncc12)N1CCC(c2nc3ccccc3s2)CC1` [Compound 140] is at most 0.1 µM; for `O=C(CCOCCc1cccc2c(=O)[nH]ncc12)N1CCN(c2nc3ccccc3s2)CC1` [Compound 141] it is at most 0.1 µM.
The figure for `CC1CN(c2ncc(C(F)(F)F)cn2)CCN1C(=O)CCOCCn1ncc2c(=O)[nH]ncc21` (centres unmarked) [Compound 142] is at most 0.1 µM; for `CC1CN(c2ncc(C(F)(F)F)cn2)CCN1C(=O)CCOCCn1ncc2c(=O)[nH]ncc21` (centres unmarked) [Compound 143] it is at most 0.1 µM.
Under `O=C(CCOCCc1csc2c(=O)[nH]c(=O)[nH]c12)N1CCN(c2ncc(C(F)(F)F)cn2)CC1` [Compound 144] stands at most 0.1 µM.
Consider `O=C1NCCCc2c(CCOCCC(=O)N3CCN(c4ncc(C(F)(F)F)cn4)CC3)cccc21` [Compound 145], for which the IC50 lay in the range of 1 to 10 µM.
Under `O=C(CCOCCc1cccc2c(=O)[nH]ncc12)N1CCN(c2nc3ccccc3o2)CC1` [Compound 146] stands at most 0.1 µM.
The figure for `O=C(CCOCCn1ncc2c(=O)[nH]ncc21)N1CCN(c2ncc(Cl)cn2)CC1` [Compound 147] is at most 0.1 µM.
Turning to `O=C(CCOCCc1cccc2c(=O)[nH]ncc12)N1CCN(c2ncc(C(F)(F)F)cn2)C(CO)C1` (centres unmarked) [Compound 148], the half-maximal inhibitory concentration (IC50) was at most 0.1 µM.
